Measurements reported in patent publication US20160367620A1, “GLUTATHIONE” (priority 2015, published 2016).
Where “and” joins values, the source holds several entries; their conditions need not be identical. Identical values can stand only once. Like-named read-outs stand apart in the source and are kept apart here.

Tests used:
[1] = tested on: human immunodeficiency virus (HIV) expression; conditions: U1 cells; cited from earlier work
hepatocellular carcinoma = conditions: 5 g oral per day, two female patients who survived 1 year; cited from earlier work
[2] = 1,200 mg/day i.v.; cited from earlier work
HIV-1 [3] = conditions: cited from earlier work; for persistence of anti-HIV-1 effect in culture: single pulse exposure, monocyte/macrophages in vitro
[4] = tested on: mouse neuroblastoma cells; conditions: coadministration; cited from earlier work
guinea pigs = conditions: ascorbate deficient guinea pigs, 3.75 mmol/kg daily (1,152 mg/kg daily) in three divided doses; cited from earlier work
[5] = tested on: human venous endothelial cells and rat aortic smooth muscle cells; conditions: cited from earlier work
[6] = human, in vivo, cited from earlier work
[7] = human, in vivo, iv
Text: The kinetics and the effect of glutathione on plasma and urine sulfhydryls were studied in ten healthy human volunteers.

[8] = tested on: Concanavalin A stimulated proliferation of splenocytes; conditions: rats, dietary GSH supplementation; cited from earlier work
human IL-4 production = conditions: stimulated peripheral blood T cells, Th0- and Th2-like T cell clones; cited from earlier work
[9] = i.v. GSH coadministration; cited from earlier work
Mouse [10] = conditions: pretreatment; cited from earlier work
Mouse [11] = conditions: cited from earlier work
HIV [12] = conditions: chronically infected cells, exogenous GSH; cited from earlier work
monocyte-macrophages = conditions: by conjugation of HNE; cited from earlier work
[13] = human, in vivo, po, 15 mg/kg; cited from earlier work
herpes viruses = conditions: cell culture, extracellular glutathione; cited from earlier work
HIV [14] = conditions: 75 mg/kg in two equally divided doses
RPE cells = conditions: GSH supplemented in the medium; cited from earlier work
[15] = cited from earlier work
[16] = tested on: Peripheral Blood Mononuclear Cells (PBMC's)
Method: A total of 10,000 glutathione assays were performed.
The Phase I/II data, was based on approximately 10,000 glutathione assays of peripheral blood mononuclear cells (PBMC's) of HIV positive people given the drug regimen.
The study detailed in Appendix B administered the glutathione to HIV infected, otherwise healthy males between 18 and 65, with CD4+ cell counts above 500, not on any other medications.
24 HIV positive people received glutathione in a clinical trial. The first dose of one gram was taken at 0 time, or 10:00 a.m., and the second dose at 3 hours, or 1:00p.m. A baseline was measured two weeks earlier, on the same patient. A temporary intravenous catheter was in place for 7 hours to permit frequent blood sampling at the numerous time points.

[17] = rat, plasma; cited from earlier work
[18] = tested on: high-affinity component of mitochondrial glutathione transport; conditions: stimulated by ATP; cited from earlier work
NFκB and COX-2 = conditions: cited from earlier work
[19] = tested on: glucose-induced insulin secretion; conditions: infusion 10 mg/min for 120 min, cited from earlier work
HIV-1 [20] = conditions: human macrophages, cited from earlier work
[21] = cited from earlier work; remark: listed apart in the source
cytotoxic T-lymphocytes = conditions: mouse, injection of GSH on the third day post immunization; cited from earlier work
microglial cells = conditions: NO and superoxide generated via iNOS and NADPH-oxidase; cited from earlier work
[22] = tested on: murine macrophage J774 cells; conditions: exposure to the NO-releasing compound; cited from earlier work
NFκB = conditions: Jurkat cells, various concentrations; cited from earlier work
HIV-1 LTR = conditions: Jurkat cells; cited from earlier work
8E5 cells = conditions: HIV gene expression, low GSH-peroxidase activity; cited from earlier work
Mouse [23] = conditions: subcutaneous injection; cited from earlier work
HUVEC and QG90 cell = conditions: pretreatment of HUVEC, IL-1 induced; cited from earlier work
topoisomerase II = conditions: cited from earlier work
P-selectin = conditions: human endothelial cells; cited from earlier work

For glutathione ester [GSE], the “induction of HIV expression mediated by PMA, TNF-α, or IL-6” value [1] is given as “suppressed in a dose-dependent fashion”.
In the case of `N[C@@H](CCC(=O)N[C@@H](CS)C(=O)NCC(=O)O)C(=O)O` [GSH, gamma-glutamyl-cysteinyl-glycine], the tumor growth (hepatocellular carcinoma) is given as “regression or stagnation of their tumor growth”, the “hematologic parameters (hematocrit, hemoglobin, blood count) compared to baseline” value [2] is given as “significantly increase studied hematologic parameters” and the “HIV-1 expression in peripheral blood mononuclear cells (PBMC)” value (HIV-1 [3]; in vitro) is given as “blocked or substantially reduced”. For the same compound, the “cellular toxicity in monocyte/macrophages” value (HIV-1 [3]; in vitro) was “without producing detectable cellular toxicity”, the “duration of suppression of HIV production” value (HIV-1 [3]; infected monocytes, intracellular glutathione raised to the high end of the normal range) was “about 35 days” and the “HIV-1 p24 antigen levels and reverse transcriptase activity” value (HIV-1 [3]; single pulse exposure of HIV-1-infected monocyte/macrophages) was “sustained, concentration-dependent decrease”. For the same compound, the “persistence of anti-HIV-1 effect in culture” value (HIV-1 [3]) was “at least 35 days”, the “persistence of anti-HIV-1 effect in culture” value (HIV-1 [3]; listed as glutathione) was 35 days and the “deleterious effects of methylmercury” value [4] was “largely prevented”. The toxicity (guinea pigs) was “toxic”, the “peroxynitrite induced suppression of mitochondrial respiration, nitrotyrosine formation, protein oxidation, DNA single strand breakage” value [5] was “attenuated” and the “volume of distribution of exogenous glutathione” value ([6]; iv) was 176-107 MI/Kg. For the same compound, the “plasma concentration of total cyst(e)ine” value [6] was “decreased”, the half-life [7] was 14.1-9.2 minutes and the “age-associated decline of immune response” value [8] was “reverse age-associated decline of immune response”. For the same compound, the “human IL-4 production” value (human IL-4 production) was “decreased in a dose-dependent manner”, the “cytotoxic or cytostatic effects” value [1] was “absence of cytotoxic or cytostatic effects” and the “induction of HIV expression mediated by PMA, TNF-α, or IL-6” value [1] was “suppressed in a dose-dependent fashion”. The “nephrotoxicity of cisplatin and/or cyclophosphamide combination therapy” value [9] was “reduces associated nephrotoxicity”, the morphine-induced lethality (Mouse [10]) was “protects against morphine-induced lethality” and the LD50 (Mouse [11]; Intramuscular) was 4000 mg/kg. The LD50 (Mouse [11]; Intraperitoneal) was 4020 mg/kg and 6815 mg/kg, the LD50 (Mouse [11]; Intravenous) was 2238 mg/kg and the LD50 (Mouse [11]; Oral) was 5000 mg/kg. The LD50 (Mouse [11]; Subcutaneous) was 5000 mg/kg, the “virus infectivity, budding and release of virus particles” value (HIV [12]) was “strongly suppresses” and the macrophage death (monocyte-macrophages) was “protected against macrophage death”. For the same compound, the “rise of plasma glutathione levels over the basal concentration” value [13] was 1.5-10 fold, the “reproduction of herpes viruses” value (herpes viruses) was “inhibited or reduced” and the “survival after starting on GSH” value (HIV [14]; four far advanced AIDS patients who followed the regimen) was 3 years. The “CD4+ cell counts” value (HIV [14]; four patients) was “did not restore their CD4+ cell counts to any extent”, the “growth of RPE cell cultures” value (RPE cells) was “thrive” and the benefit ([15]; 3 grams daily for three months, 46 AIDS patients) was “no benefit was conclusively demonstrated”. The adverse effects ([15]; human, in vivo) was “No significant GSH-related adverse effects were reported”, the intracellular glutathione insufficiency ([16]; PBMC's of HIV positive people) was “correction of the intracellular glutathione insufficiency was evident” and the “dose dependence of PBMC glutathione” value ([16]; in vivo) was “dose response relationship”. For the same compound, the safety ([16]; in vivo) was “no evidence of toxicities”, the “absorption and distribution within the PBMC completed” value ([16]; male, human, in vivo, po) was 60 min and the “share absorbed and intracellular” value ([16]; male, human, in vivo, po) was 80%. For the same compound, the “start of distribution into PBMC's / absorption after oral ingestion” value ([16]; male, human, in vivo, po) was at most 0.5 h, the “share of the remaining 30% as GSSG” value [17] was 9.5% and the “share of the remaining 30% as the mixed disulfide with cysteine” value [17] was 62.6%. The V max [18] was “approximately 0.5 n mol/min per mg of protein”, the “activation of NFκB and COX-2 by H. pylori infection” value (NFκB and COX-2) was “inhibited” and the “insulin clearance and action” value [19] was “No effect”. For the same compound, the glucose-induced insulin secretion ([19]; patients with IGT) was “significantly potentiated glucose-induced insulin secretion”, the “production of p24 gag protein and virus infectivity” value (HIV-1 [20]; exogenous GSH) was “strongly suppressed” and the “systolic and diastolic blood pressure” value ([21]; 1,844 mg i.v. bolus, hypertensive patients and non-hypertensive diabetics) was “rapid and significant decrease in both systolic and diastolic blood pressure”. For the same compound, the blood pressure ([21]; 1,844 mg i.v. bolus, normal healthy subjects) was “no effect”, the “return of blood pressure to baseline” value ([21]; 1,844 mg i.v. bolus) was at most 30 min and the blood pressure values ([21]; 3,699 mg dose, normal subjects) was “significant decrease in the blood pressure values in normal subjects”. For the same compound, the “augmentation of cytotoxic activity” value (cytotoxic T-lymphocytes) was 5 fold and the peroxynitrite formation (microglial cells) was “significantly decreased peroxynitrite formation”.
In the case of `CC(=O)N[C@H](C(=O)O)C(C)(C)SN=O` [SNAP, S-nitroso-N-acetyl penicillamine], the viability of macrophages [22] is given as “diminished”.
In the case of `N/C(=N\O)c1cc(O)c(O)c(O)c1` [TD, Trimidox], the “TNF-α-induced NFκB binding” value (NFκB) is given as “inhibited” and the “induction of HIV-1 LTR-mediated gene expression by TNF-α and Tat” value (HIV-1 LTR) is given as “significantly suppressed”.
In the case of `CCCCCC(/C=C/C=C\C/C=C\C/C=C\CCCC(=O)O)OO` (centres unmarked) [Example 15-HPETE, 15-hydroperoxy eicosatetraenoic acid], the “increase in sensitivity of 8E5 cells to killing” value (8E5 cells) is listed as 10 fold.
In the case of `CN1CC[C@]23c4c5ccc(O)c4O[C@H]2C(=O)C=C[C@H]3[C@H]1C5` [morphinone], the “toxicity relative to morphine” value (Mouse [23]) is given as 9 times.
In the case of `CC(=O)Oc1ccccc1C(=O)O` [aspirin], the “cell-to-cell attachment of cancer cells to HUVEC” value (HUVEC and QG90 cell) is listed as “efficiently blocked the cell-to-cell attachment in a dose-dependent manner”.
For `CCN1C(=O)C=CC1=O` [NEM, N-ethyl maleimide], the “topoisomerase II-mediated DNA cleavage” value (topoisomerase II) is listed as “caused topoisomerase II-mediated DNA cleavage”.
In the case of `O=C([O-])c1ccccc1O.[Na+]` [sodium salicylate], the “IL-4 induced expression of P-selectin” value (P-selectin) is listed as “inhibited”.
In the case of `O=[N+]([O-])c1ccc(SSc2ccc([N+](=O)[O-])cn2)nc1` [2,2′ dithiobis (5-nitropyridine)], the “topoisomerase II-mediated DNA cleavage” value (topoisomerase II) is listed as “caused topoisomerase II-mediated DNA cleavage”.
For `CC(=O)CCCCn1c(=O)c2c(ncn2C)n(C)c1=O` [pentoxyphillin], the “cell-to-cell attachment of cancer cells to HUVEC” value (HUVEC and QG90 cell) is given as “efficiently blocked the cell-to-cell attachment in a dose-dependent manner”.
For `CCCCS(=N)(=O)CCC(N)C(=O)O` (centres unmarked) [BSO, buthionine sulfoximine], the “HIV yield in the supernatant” value (HIV-1 [20]) is listed as “significantly increased”.
